One assay has as its system LPA 18:2 in rat plasma. The assay is described as follows: Rat whole blood (plasma) LPA assay. It is filed as biochemical. The following applies: 2 h at 37 C, LPA 18:2 by LC-MS/MS. The procedure: Whole blood is collected from rats or mouse by exsanguinations on sodium heparin tube, then after centrifugation at 3000 rpm for 15 min at 4° C., plasma is stored at −80° C. Compounds are diluted in DMSO in concentration dependent manner then 0.5 μL are dispensed into 96-well plate placed in ice. Plasma is defrosted on ice then 49.5 μL of plasma are added into the well containing 0.5 μL of compound (1% DMSO final). Plates are covered with a lid in polypropylene and incubated at +37° C., 5% CO2, for 2 h under gentle shaking (except controls which are stored at −20° C.).
At the end of the incubation, controls are defrosted in ice and transferred in the incubated plates for LC-MS/MS analysis with a non GLP-validated method. For the analysis, plasma proteins from a 10 μL incubated plates are precipitated with an excess of methanol containing the internal standard, LPA 17:0. After centrifugation, the corresponding supernatant is injected on a C18 column. Analytes are eluted out of the column under isocratic conditions. An API5500 QTRAP mass spectrometer (ABSciex™) is used for the detection of LPA 18:2. No calibration curve is prepared for LPA 18:2, however relative quantities are evaluated based on the peak area.

The target of assay [1] is T1, hENPP2 (UniProtKB/SwissProt Q13822) (Homo sapiens (Human), UniProt Q13822). The assay is described as follows: hENPP2 biochemical assay, LPC as substrate. The conditions noted are these: LPC (palmitoyl 16:0) as substrate. In a few lines:
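Human ENPP2 in 50 mM Tris-HCl pH 8.5, 500 mM NaCl, 5 mM KCl, 10 mM CaCl2, 0.1% fatty-acid-free BSA, reacted 30 min at 37 °C with LPC 16:0 (150 µM solution added 1:1). Released choline measured via choline oxidase/peroxidase/TOOS/4-aminoantipyrine quinoneimine dye at 555 nm; IC50 reported.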

In assay [2] the target is T1, hENPP2. The assay is described as follows: fluorescent hENPP2 biochemical assay, FS-3 as substrate. The conditions noted are these: read-out: FS3-IC50. In a few lines:
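IC50 values come from fluorescence gained as FS-3 is hydrolysed (ex 485, em 520 nm). The reaction, started by adding 0.75 μM FS-3 solution, runs 30 min at 30° C after a 30 min room-temperature preincubation of compound with enzyme. Buffer: Tris-HCl pH 8.0 with NaCl, KCl, MgCl2, CaCl2 and 0.1% BSA.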

In turn, `CCc1nc2c(F)cc(N3CCN(CC(=O)N4CC(O)C4)CC3)cn2c1N(C)c1nc(-c2ccc(F)cc2)cs1` [Compound 14, 2-(4-(2-ethyl-8-fluoro-3-((4-(4-fluorophenyl)thiazol-2-yl)(methyl)amino)imidazo[1,2-a]pyridin-6-yl)piperazin-1-yl)-1-(3-hydroxyazetidin-1-yl)ethanone] came in with an IC50 in the assay on LPA 18:2 in rat plasma of 0.01 to 100 nM.
`CCc1nc2c(F)cc(N3CCN(CC(=O)N4CC[C@H](O)C4)CC3)cn2c1N(C)c1nc(-c2ccc(F)cc2)cs1` [Compound 15, (S)-2-(4-(2-ethyl-8-fluoro-3-((4-(4-fluorophenyl)thiazol-2-yl)(methyl)amino)imidazo[1,2-a]pyridin-6-yl)piperazin-1-yl)-1-(3-hydroxypyrrolidin-1-yl)ethanone]: the IC50 in the assay on LPA 18:2 in rat plasma lay in the range of 500 to 1000 nM.
On the same count and under the same terms, for `CCc1nc2c(C)cc(N3CCN(CC(=O)N4CC(C)(O)C4)CC3)cn2c1N(C)c1nc(-c2ccc(F)cc2)c(C#N)s1` [Compound 3, 2-((2-ethyl-6-(4-(2-(3-hydroxy-3-methylazetidin-1-yl)-2-oxoethyl)piperazin-1-yl)-8-methylimidazo[1,2-a]pyridin-3-yl)(methyl)amino)-4-(4-fluorophenyl)thiazole-5-carbonitrile] the value was 100 to 500 nM; for `CCc1nc2c(F)cc(N3CCN(CC(=O)N4CC[C@@H](O)C4)CC3)cn2c1N(C)c1nc(-c2ccc(F)cc2)cs1` [Compound 16, (R)-2-(4-(2-ethyl-8-fluoro-3-((4-(4-fluorophenyl)thiazol-2-yl)(methyl)amino)imidazo[1,2-a]pyridin-6-yl)piperazin-1-yl)-1-(3-hydroxypyrrolidin-1-yl)ethanone], 500 to 1000 nM; for `CCc1nc2cc(F)c(N3CCN(CC(=O)N4CC(O)C4)CC3)cn2c1N(C)c1nc(-c2ccc(F)cc2)c(C#N)s1` [Compound 18, 2-[(2-Ethyl-7-fluoro-6-{4-[2-(3-hydroxy-azetidin-1-yl)-2-oxo-ethyl]-piperazin-1-yl}-imidazo[1,2-a]pyridin-3-yl)-methyl-amino]-4-(4-fluoro-phenyl)-thiazole-5-carbonitrile], 0.01 to 100 nM.
`CCc1nc2ccc(N3CCN(C(=O)OC(C)(C)C)CC3)cn2c1N(C)c1nc(-c2ccc(F)cc2)cs1` [Compound 23, tert-butyl 4-(2-ethyl-3-((4-(4-fluorophenyl)thiazol-2-yl)(methyl)amino)imidazo[1,2-a]pyridin-6-yl)piperazine-1-carboxylate]: the results for the IC50 at hENPP2 [1] and at hENPP2 [2] were greater than 1000 nM and 0.01 to 100 nM, respectively.
`CCOC(=O)CN1CCC(c2ccc3nc(CC)c(N(C)c4nc(-c5ccc(F)cc5)cs4)n3c2)CC1` [Compound 109, ethyl 2-(4-(2-ethyl-3-((4-(4-fluorophenyl)thiazol-2-yl)(methyl)amino)imidazo[1,2-a]pyridin-6-yl)piperidin-1-yl)acetate]: the IC50 against hENPP2 [1] was in the range of 100 to 500 nM; at hENPP2 [2], 0.01 to 100 nM.
For `CCc1nc2ccc(N3CCN(C(=O)OC(C)(C)C)CC3=O)cn2c1N(C)c1nc(-c2ccc(F)cc2)cs1` [Compound 62, 4-(2-Ethyl-3-{[4-(4-fluoro-phenyl)-thiazol-2-yl]-methyl-amino}-imidazo[1,2-a]pyridin-6-yl)-3-oxo-piperazine-1-carboxylic acid tert-butyl est] the same measures were greater than 1000 nM and 0.01 to 100 nM.
As for `CCc1nc2ccc(C3CCN(S(C)(=O)=O)CC3)cn2c1N(C)c1nc(-c2ccc(F)cc2)c(C)s1` [Compound 101, N-(2-ethyl-6-(1-(methylsulfonyl)piperidin-4-yl)imidazo [1,2-a]pyridin-3-yl)-4-(4-fluorophenyl)-N,5-dimethylthiazol-2-amine], the IC50 is greater than 1000 nM on hENPP2 [1] and 0.01 to 100 nM on hENPP2 [2].
For the compound `CCc1nc2ccc(N3CCN(CC(=O)N(C)C)CC3)cn2c1N(C)c1nc(-c2ccc(F)cc2)cs1` [Compound 35, 2-(4-(2-ethyl-3-((4-(4-fluorophenyl)thiazol-2-yl)(methyl)amino)imidazo[1,2-a]pyridin-6-yl)piperazin-1-yl)-N,N-dimethylacetamide], the figures for the 50% inhibitory concentration (IC50) against hENPP2 [1] and at hENPP2 [2] were 100 to 500 nM and 0.01 to 100 nM, respectively.
For `CCc1nc2ccc(N3CCCS3(=O)=O)cn2c1N(C)c1nc(-c2ccc(F)cc2)cs1` [Compound 229, [6-(1,1-Dioxo-isothiazolidin-2-yl)-2-ethyl-imidazo[1,2-a]pyridin-3-yl]-[4-(4-fluoro-phenyl)-thiazol-2-yl]-methyl-amine] the same measures were greater than 1000 nM and 100 to 500 nM.
In the same order, the values of `CCc1nc2ccc(C3CCN(Cc4ccccc4)CC3)cn2c1N(C)c1nc(-c2ccc(F)cc2)cs1` [Compound 217, [6-(1-Benzyl-piperidin-4-yl)-2-ethyl-imidazo[1,2-a]pyridin-3-yl]-[4-(4-fluoro-phenyl)-thiazol-2-yl]-methyl-amine] are greater than 1000 nM and 0.01 to 100 nM.
In the same order, the values of `CCc1nc2ccc(C3CCN(CC(=O)N(C)C)CC3)cn2c1N(C)c1nc(-c2ccc(F)cc2)c(CO)s1` [Compound 157, 2-(4-(2-ethyl-3-((4-(4-fluorophenyl)-5-(hydroxymethyl)thiazol-2-yl)(methyl)amino)imidazo[1,2-a]pyridin-6-yl)piperidin-1-yl)-N,N-dimethylacetamide] are greater than 1000 nM and 0.01 to 100 nM.
For `CCc1nc2ccc(N3CCN(C(=O)C4CCC(=O)N4)CC3)cn2c1N(C)c1nc(-c2ccc(F)cc2)cs1` (stereo not drawn) [Compound 201, 5-(4-(2-ethyl-3-((4-(4-fluorophenyl)thiazol-2-yl)(methyl)amino)imidazo[1,2-a]pyridin-6-yl)piperazine-1-carbonyl)pyrrolidin-2-one], the IC50 on hENPP2 [1] is greater than 1000 nM; on hENPP2 [2], 0.01 to 100 nM.
For `CCC(=O)N1CCC(c2ccc3nc(CC)c(N(C)c4nc(-c5ccc(F)cc5)cs4)n3c2)CC1` [Compound 215, 1-(4-(2-ethyl-3-((4-(4-fluorophenyl)thiazol-2-yl)(methyl)amino)imidazo[1,2-a]pyridin-6-yl)piperidin-1-yl)propan-1-one] the same measures were 100 to 500 nM and 0.01 to 100 nM.
On to `CCc1nc2ccc(N3CCN(CC#N)CC3)cn2c1N(C)c1nc(-c2ccc(F)cc2)cs1` [Compound 38, 2-(4-(2-ethyl-3-((4-(4-fluorophenyl)thiazol-2-yl)(methyl)amino)imidazo[1,2-a]pyridin-6-yl)piperazin-1-yl)acetonitrile], for which the IC50 was greater than 1000 nM at hENPP2 [1] and 0.01 to 100 nM at hENPP2 [2].
In the same order, the values of `CCc1nc2ccc(C3CCN(C(C)C)CC3)cn2c1N(C)c1nc(-c2ccc(F)cc2)cs1` [Compound 218, N-(2-ethyl-6-(1-isopropylpiperidin-4-yl)imidazo[1,2-a]pyridin-3-yl)-4-(4-fluorophenyl)-N-methylthiazol-2-amine] are greater than 1000 nM and 0.01 to 100 nM.
For `CCc1nc2ccc(C3CCN(S(C)(=O)=O)CC3)cn2c1N(C)c1nc(-c2ccc(F)cc2)c(C(C)=O)s1` [Compound 105, 1-(2-((2-ethyl-6-(1-(methylsulfonyl)piperidin-4-yl)imidazo[1,2-a]pyridin-3-yl)(methyl)amino)-4-(4-fluorophenyl)thiazol-5-yl)ethanone] the same measures were 100 to 500 nM and 0.01 to 100 nM.
As to `CCc1nc2ccc(C3CCN(S(=O)(=O)CCCCl)CC3)cn2c1N(C)c1nc(-c2ccc(F)cc2)cs1` [Compound 86, N-(6-(1-(3-chloropropylsulfonyl)piperidin-4-yl)-2-ethylimidazo[1,2-a]pyridin-3-yl)-4-(4-fluorophenyl)-N-methylthiazol-2-amine], the IC50 is greater than 1000 nM against hENPP2 [1] and 0.01 to 100 nM at hENPP2 [2].
In the same order, the values of `CCc1nc2ccc(N3CC(NC(=O)CN4CC(O)C4)C3)cn2c1N(C)c1nc(-c2ccc(F)cc2)cs1` [Compound 179, N-(1-(2-ethyl-3-((4-(4-fluorophenyl)thiazol-2-yl)(methyl)amino)imidazo[1,2-a]pyridin-6-yl)azetidin-3-yl)-2-(3-hydroxyazetidin-1-yl)acetamide] are greater than 1000 nM and 0.01 to 100 nM.
For `CCc1nc2ccc(N3CCN(CC(=O)NC)CC3)cn2c1N(C)c1nc(-c2ccc(F)cc2)c(C#N)s1` [Compound 22, 2-(4-(3-((5-cyano-4-(4-fluorophenyl)thiazol-2-yl)(methyl)amino)-2-ethylimidazo[1,2-a]pyridin-6-yl)piperazin-1-yl)-N-methylacetamide] the same measures were 0.01 to 100 nM and 0.01 to 100 nM.
As for `CCc1nc2ccc(C3=CCN(S(C)(=O)=O)C3)cn2c1N(C)c1nc(-c2ccc(Cl)cc2)cs1` [Compound 68, 4-(4-chlorophenyl)-N-(2-ethyl-6-(1-(methylsulfonyl)-2,5-dihydro-1H-pyrrol-3-yl)imidazo[1,2-a]pyridin-3-yl)-N-methylthiazol-2-amine], the IC50 is greater than 1000 nM at hENPP2 [1] and 0.01 to 100 nM at hENPP2 [2].

As a reminder, the IC50 is the midpoint of a concentration-inhibition curve.

Values taken from patent US9670204B2, “Compounds and pharmaceutical compositions thereof for the treatment of inflammatory disorders” (Galapagos NV, priority 2013, dated 2017).
